# According to article PMC5584805 (Biochemistry, 2016):
# Values joined by “and” are separate entries in the source; they are usually repeats but may differ in a detail not shown here. Equal values may be shown once. Read-outs that look alike come from different tables or passages of the source. Marks after values point to notes of the source that are not given here.
# Experiments:
# [1] = biological target: T1, Escherichia coli CTP synthetase (EcCTPS) (Escherichia coli, UniProt P0A7E5); assay: CTP synthesis assay; settings: for apparent kcat at 2 μM EcCTPS: annealing at 40 μM EcCTPS; for EC50: EC50 (activation); for Ki: Ki (two-site model); for IC50^ox/IC50^red: ratio of oxidized to reduced form IC50, standard conditions; for Kd: best fit
# E277R EcCTPS = E277R EcCTPS (Escherichia coli, UniProt P0A7E5, E277R); assay: CTP synthesis assay, filament-blocking mutant E277R EcCTPS; format: biochemical
# [2] = biological target: T1, Escherichia coli CTP synthetase (EcCTPS); settings: read-out: IC50 (inhibition of CTP synthesis); higher GTP concentrations; cited from earlier work
# [3] = system: CTPS glutamine hydrolysis; settings: low concentrations (0–200 μM); cited from earlier work
# EcCTPS = EcCTPS (Escherichia coli, UniProt P0A7E5); assay: Ammonia-dependent CTP synthesis; format: biochemical; settings: Figure S6
# [4] = 100 nM enzyme, other substrates saturating, 200 μM GTP
# [5] = limiting substrate titrated, other substrates saturating, 200 μM GTP, 37 °C
# [6] = IC50, standard: 200 nM EcCTPS, 1.5 mM ATP, 600 μM UTP, 10 mM glutamine, 200 μM GTP (unless GTP titrated), linear extrapolation
# [7] = standard: 200 nM EcCTPS, 1.5 mM ATP, 600 μM UTP, 10 mM glutamine, 200 μM GTP (unless GTP titrated), linear extrapolation
# [8] = inhibitor alone, activating GTP (50 or 200 μM)
# [9] = two ligands present (second inhibitor)
# E277R EcCTPS, sequence (P0A7E5 whole entry E277R): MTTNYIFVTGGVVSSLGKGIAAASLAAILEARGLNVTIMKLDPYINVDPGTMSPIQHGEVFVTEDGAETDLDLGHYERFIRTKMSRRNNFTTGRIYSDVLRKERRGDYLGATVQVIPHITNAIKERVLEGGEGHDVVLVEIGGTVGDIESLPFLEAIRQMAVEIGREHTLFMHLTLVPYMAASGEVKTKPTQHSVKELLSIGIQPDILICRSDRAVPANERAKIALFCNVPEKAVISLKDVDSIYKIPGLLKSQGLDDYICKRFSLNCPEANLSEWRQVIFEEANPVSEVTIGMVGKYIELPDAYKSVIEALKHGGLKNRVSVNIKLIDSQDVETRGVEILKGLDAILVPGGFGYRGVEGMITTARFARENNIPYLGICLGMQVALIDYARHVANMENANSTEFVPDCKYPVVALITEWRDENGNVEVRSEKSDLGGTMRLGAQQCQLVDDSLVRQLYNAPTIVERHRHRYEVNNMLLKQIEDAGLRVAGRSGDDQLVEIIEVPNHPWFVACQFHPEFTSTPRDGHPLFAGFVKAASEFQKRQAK
# T1 sequence (P0A7E5 whole entry): as the sequence (P0A7E5 whole entry E277R) above, with R277E counted along it
# EcCTPS, sequence (P0A7E5 whole entry): as the sequence (P0A7E5 whole entry E277R) above, with R277E counted along it
structure (smiles),measurement,setting,value
"O=c1ccn([C@@H]2O[C@H](COP(=O)(O)OP(=O)(O)OP(=O)(O)O)[C@@H](O)[C@H]2O)c(=O)[nH]1 [UTP, uridine-5’- triphosphate]","Hill coeff, nH",[1]; [4],1.3 ± 0.2
same,S0.5,[1]; [4],57 ± 8 µM
same,"Hill coeff, nH",[1]; 150 μM ATP (subsaturating),1.8 ± 0.1 (6)
same,S0.5,[1]; 150 μM ATP (subsaturating),200 ± 40 µM
same,"Hill coeff, nH",[1]; [5],1.4 ± 0.3 (23)^b
"Nc1nc2c(ncn2[C@@H]2O[C@H](COP(=O)(O)OP(=O)(O)OP(=O)(O)O)[C@@H](O)[C@H]2O)c(=O)[nH]1 [GTP, guanosine-5’-triphosphate]",EC50,E277R EcCTPS,46 ± 6 µM
same,IC50,E277R EcCTPS,697 ± 4 µM
same,Ki,E277R EcCTPS,342 µM
same,kact (two-site model),E277R EcCTPS; 200 nM E277R,10.7 s⁻¹
same,ninh (two-site model),E277R EcCTPS; 200 nM E277R,3.8
same,IC50,[2],~500 µM
same,activation of glutamine hydrolysis,[3],up to 50 fold
same,kact (two-site activation/inhibition model),"[1]; 200 nM WT, no other inhibitor",10.7 s⁻¹
same,ninh (two-site model),"[1]; 200 nM WT, no other inhibitor",4.7
same,kact (two-site model),[1]; 4 μM WT,4.7 s⁻¹
same,ninh (two-site model),[1]; 4 μM WT,4.1
same,enzyme concentration for 50% autoinhibition,[1]; 50 μM GTP,6.1 µM
same,apparent kcat at 2 μM EcCTPS,[1]; 50 μM GTP,2.9 s⁻¹
same,enzyme concentration for 50% autoinhibition,[1]; 200 μM GTP,3.9 µM
same,apparent kcat at 2 μM EcCTPS,[1]; 200 μM GTP,5.0 ± 0.1 s⁻¹
same,enzyme concentration for 50% autoinhibition,[1]; 500 μM GTP,2.8 µM
same,apparent kcat at 2 μM EcCTPS,[1]; 500 μM GTP,2.7 ± 1.0 s⁻¹
same,EC50,[1]; 4 μM WT EcCTPS,27 ± 7 µM
same,EC50,"[1]; standard: 200 nM EcCTPS, 1.5 mM ATP, 600 μM UTP, 10 mM glutamine",~38 µM and 38 µM
same,IC50,"[1]; IC50, 4 μM WT EcCTPS",455 ± 46 µM
same,IC50,[1]; [6],540 ± 60 µM
same,Ki,"[1]; 200 nM WT, no other inhibitor",301 µM
same,Ki,[1]; 4 μM WT,221 µM
same,optimal GTP concentration,[1]; in presence of 500 μM NADH,approximately 100 μM
same,concentration of maximum activation,[1]; standard conditions,~ 200 μM
NC(=O)CC[C@H](N)C(=O)O [glutamine],"Hill coeff, nH",[1]; [4],1.1 ± 0.1 (11)
same,S0.5,[1]; [4],360 ± 20^e μM
"NC(=O)c1ccc[n+]([C@@H]2O[C@H](COP(=O)([O-])OP(=O)(O)OC[C@H]3O[C@@H](n4cnc5c(N)ncnc54)[C@H](OP(=O)(O)O)[C@@H]3O)[C@@H](O)[C@H]2O)c1 [NADP^+, nicotinamide adenine dinucleotide 2’-phosphate (oxidized)]",IC50,[1]; [7],1280 ± 50 µM
"Nc1ncnc2c1ncn2[C@@H]1O[C@H](COP(=O)(O)OP(=O)(O)OP(=O)(O)O)[C@@H](O)[C@H]1O [ATP, adenosine 5’-triphosphate]","Hill coeff, nH",[1]; [4],1.7 ± 0.3
same,S0.5,[1]; [4],126 ± 13 µM
same,S0.5,[1]; 50 μM GTP,81 ± 5 µM
same,"Hill coeff, nH",[1]; 60 μM UTP,1.9 ± 0.4 (5)
same,S0.5,[1]; 60 μM UTP,310 ± 20 µM
same,S0.5,[1]; 500 μM GTP,155 ± 25 µM
same,"Hill coeff, nH",[1]; [5],1.7 ± 0.2 (18)^c
"C[n+]1cccc(C(N)=O)c1 [1MeN, 1-methylnicotinamide]",inhibition at 3000 µM,[1],< 25%
same,IC50,[1]; [6],~4000 µM
"NC(=O)C1=CN([C@@H]2O[C@H](COP(=O)(O)OP(=O)(O)OC[C@H]3O[C@@H](n4cnc5c(N)ncnc54)[C@H](O)[C@@H]3O)[C@@H](O)[C@H]2O)C=CC1 [NADH, 1,4 dihydronicotinamide adenine dinucleotide (reduced)]",dose–response of E277R compared with wild-type,"E277R EcCTPS; 200 nM enzyme, 0–1500 μM NADH",no significant differences between wild-type and mutant
same,effect on ammonia-dependent synthesis,EcCTPS,inhibits
same,IC50,"[1]; 50 μM GTP, otherwise standard",770 ± 30 µM
same,dependence of inhibition potency on enzyme concentration,[1]; Figure S4,independent of enzyme concentration from 50 to 400 nM
same,inhibition,"[1]; at 1250 μM, standard conditions",greater than 95%
same,increase of inhibition potency,[1]; by 400 μM CTP,~ 2.1 fold
same,K2/K1 (sequential binding model),[1]; [8],4–40
same,K3/K2 (sequential binding model),[1]; [8],0.2–0.8
same,IC50^ox/IC50^red,[1],3.7
same,IC50,[1]; [7],470 ± 40 µM
same,K2/K1 (sequential binding model),[1]; [9],0.4–0.8
same,K3/K2 (sequential binding model),[1]; [9],40–250
"Nc1ccn([C@@H]2O[C@H](COP(=O)(O)OP(=O)(O)OP(=O)(O)O)[C@@H](O)[C@H]2O)c(=O)n1 [CTP, cytidine-5’-triphosphate]",inhibition at 750 µM,[1],85%
same,"limiting slope of Hill plot, high concentration range","[1]; 50 μM UTP, 100 nM EcCTPS",−1.9 ± 0.3
same,"limiting slope of Hill plot, low concentration range","[1]; 50 μM UTP, 100 nM EcCTPS",−0.6 ± 0.2
same,IC50,"[1]; IC50, 50 μM GTP, otherwise standard",620 ± 30 µM
same,IC50,"[1]; IC50, 500 μM GTP, otherwise standard",220 ± 60 µM
same,IC50,[1]; [6],~370 µM and 370 µM
same,Kd,"[1]; K1 (four-site sequential binding model), standard conditions",446 µM
same,Kd,"[1]; K2 (four-site sequential binding model), standard conditions",2120 µM
same,Kd,"[1]; K3 (four-site sequential binding model), standard conditions",1170 µM
same,Kd,"[1]; K4 (four-site sequential binding model), standard conditions",7.5 µM
same,increase of inhibition potency,[1]; by 500 μM NADH,2.3 fold
same,IC50,"[1]; fit IC50 value (four-site sequential binding model), standard conditions",385 µM
same,K2/K1 (sequential binding model),[1]; [8],4–40
same,K3/K2 (sequential binding model),[1]; [8],0.2–0.8
same,IC50 relative to UTP concentration (fold lower),[1]; saturating UTP (600 μM),1.6 fold
same,average slope of Hill plot,[1]; standard conditions,−2.0
same,K2/K1 (sequential binding model),[1]; [9],0.4–0.8
same,K3/K2 (sequential binding model),[1]; [9],40–250
"NC(=O)c1ccc[n+]([C@@H]2O[C@H](COP(=O)([O-])OP(=O)(O)OC[C@H]3O[C@@H](n4cnc5c(N)ncnc54)[C@H](O)[C@@H]3O)[C@@H](O)[C@H]2O)c1 [NAD^+, nicotinamide adenine dinucleotide (oxidized)]",fold less effective inhibition than NADH,[1]; standard conditions,~ 3 fold
same,IC50,[1]; [7],1700 ± 70 µM
"Nc1ncnc2c1ncn2[C@@H]1O[C@H](COP(=O)(O)OP(=O)(O)O)[C@@H](O)[C@H]1O [ADP, adenosine 5’-diphosphate]",inhibition at 3000 µM,[1],35%
same,IC50,[1]; [6],~4500 µM
"CN1C=CCC(C(N)=O)=C1 [1MDHN, 1-methyl 1,4-dihydronicotinamide]",increase of inhibition potency,[1]; by 400 μM CTP,more than 2 fold
same,K2/K1 (sequential binding model),[1]; [8],4–40
same,K3/K2 (sequential binding model),[1]; [8],0.2–0.8
same,IC50^ox/IC50^red,[1],>28
same,IC50,[1]; [7],140 ± 10 µM
"NC(=O)C1=CN([C@@H]2O[C@H](COP(=O)(O)OP(=O)(O)OC[C@H]3O[C@@H](n4cnc5c(N)ncnc54)[C@H](OP(=O)(O)O)[C@@H]3O)[C@@H](O)[C@H]2O)C=CC1 [NADPH, 1,4 dihydronicotinamide adenine dinucleotide 2’-phosphate (reduced)]",IC50^ox/IC50^red,[1],2.8
same,IC50,[1]; [7],450 ± 20 µM
